Test results reported in article PMC9894685, “Abscisic acid agonists suitable for optimizing plant water use” (Frontiers in Plant Science, 2023).
“Also recorded” adds a separate entry of the source.

Legend:
RCAR11-ABI2 = system: T1, RCAR11-ABI2; test: In vitro phosphatase assay, ABI2 with RCAR11; type: biochemical, Arabidopsis thaliana; conditions: esterase-treated
T1 construct: 6xHis (N); made in house; host or cells: Escherichia coli BL21
Protocol: Expression, purification, and analysis of RCAR and PP2C proteins were performed essentially as described ([Ruschhaupt et al., 2019]). Briefly, the ABA receptors RCAR1, RACR8, and RCAR11 were expressed with an aminoterminal histidine tag using the pSEVA431_LII_6xHIS::RCAR1/RCAR8/RCAR11. ABA coreceptors were expressed as histidine-tagged fusions with the maltose-binding protein using the pSEVA431_LII_6xHIS::MBP::ABI2/HAB1. All constructs were transformed and expressed in Escherichia coli strain BL21 and purified to homogeneity according to supplier’s instruction (GE Healthcare, Chicago, USA). The receptor assay was performed with 100 nM PP2C and a two-fold molar excess of RCAR. Values are means ± SD of three replicates. […] The maximum inhibition was set to 100% in the figures. The phosphatase activity was measured using 4-methylumbelliferyl-phosphate as a substrate ([Meinhard and Grill, 2001]). The increase in fluorescence was recorded over 25 min with excitation and emission wavelengths at 360 and 460 nm, respectively, using a Synergy 2 plate reader (Bio-Tec, Winooski, USA).

Arabidopsis plants = test: Foliar administration and thermal imaging of leaf temperature (transpiration), Arabidopsis; type: in vivo, Arabidopsis thaliana; conditions: for Leaf temperature increase, activity compared to ABA: 10, 30, 100 µM, one day after application
Protocol: (§1) Thermal imaging was carried out as described ([Yang et al., 2016]). An assessment of the efficacy of ABA and CCPs was conducted by using 35-day-old Arabidopsis and 30-day-old wheat plants. Stock solutions (10 mM) of CCPs and ABA dissolved in dimethyl sulfoxide (DMSO) were diluted to the respective ligand concentrations (10, 30, 100 µM) in water containing 0.01% (v/v) Tween 20. Aqueous Tween 20 solutions supplemented with 0.1%, 0.3%, and 1% DMSO served for mock treatments. The solutions were sprayed onto the leaf surface until the run-off of droplets. One day after application (unless otherwise indicated), thermal imaging was conducted using the InfraTec instrument (IR-TCM 384, InfraTec, Dresden, Germany). The leaf temperature of Arabidopsis was determined as the average temperature of all leaves. The leaf temperature of wheat was determined as described ([Yang et al., 2019]).

wheat plants = test: Foliar administration and thermal imaging of leaf temperature, wheat; type: in vivo, Triticum aestivum; conditions: 100 μM, 24 h after administration
Protocol: as §1

[1] = system: Arabidopsis aba2-1 protoplasts; test: Transient ABA response in Arabidopsis protoplasts (pRD29B::LUC, RCAR11 and ABI2 effectors); type: cell-based, Arabidopsis thaliana
Protocol: Preparation of Arabidopsis protoplasts, transfection of the effector DNA, and analysis of LUC activity were performed as described ([Tischer et al., 2017]). In essence, 10^5 mesophyll protoplasts from leaves of the ABA deficient mutant aba2-1 ([Schwartz et al., 1997]) were transfected with 4 µg DNA of the pRD29B::LUC construct as an ABA-responsive reporter and 3 µg of p35S::GUS (β-glucuronidase reporter gene) expression cassette as an internal control for normalization. In addition, 3 µg p35S::RCAR11 or the empty vector with the same expression cassette were co-expressed with 0.1 µg p35S::ABI2 effector constructs ([Tischer et al., 2017]), and the ligand-dependent induction of ABA-responsive reporter expression were assessed after incubation at 22°C. The expression of LUC and GUS was determined 18 h after transfection and ligand administration.

LC-MS log p = type: physicochemical
Protocol: Cyano cyclopropyl ABA analogs were provided by Bayer (Division Crop Science, Höchst, Germany). All CCPs, except CCP8, were synthesized as described ([Frackenpohl et al., 2018]). For the synthesis of CCP8, ethyl-(2Z)-6-(1-cyanocyclopropyl)-3-ethyl-6-hydroxy-7-methyloct-2-en-4-ynoate, copper (I) iodide (7 mg, […]) and bis (triphenylphosphine) palladium (II) chloride (19 mg, 0.03 mmol) were charged under argon, and toluene (3 mL) together with ethyl (2Z)-3-iodopent-2-enoate (233 mg, 0.9 mmol; column chromatography purification of a crude product as described by [Frackenpohl et al., 2018]) were added at room temperature. After stirring for 10 min, 1-(3-hydroxy-4-methylpent-1-yn-3-yl) cyclopropanecarbonitrile (150 mg, 0.9 mmol; synthesis as describe by [Frackenpohl et al., 2018]) dissolved in toluene (3 mL) and diisopropylamine (0.4 mL, 2.8 mmol) were added. The resulting reaction mixture was stirred for 3 h prior to addition of water. The aqueous phase was extracted repeatedly with dichloromethane. The combined organic phases were dried over magnesium sulphate, filtered, and concentrated under reduced pressure. […]

[2] = molecular target: ABI2 (Arabidopsis thaliana) (UniProt O04719)
ABI2 (Arabidopsis thaliana), sequence (O04719 whole entry): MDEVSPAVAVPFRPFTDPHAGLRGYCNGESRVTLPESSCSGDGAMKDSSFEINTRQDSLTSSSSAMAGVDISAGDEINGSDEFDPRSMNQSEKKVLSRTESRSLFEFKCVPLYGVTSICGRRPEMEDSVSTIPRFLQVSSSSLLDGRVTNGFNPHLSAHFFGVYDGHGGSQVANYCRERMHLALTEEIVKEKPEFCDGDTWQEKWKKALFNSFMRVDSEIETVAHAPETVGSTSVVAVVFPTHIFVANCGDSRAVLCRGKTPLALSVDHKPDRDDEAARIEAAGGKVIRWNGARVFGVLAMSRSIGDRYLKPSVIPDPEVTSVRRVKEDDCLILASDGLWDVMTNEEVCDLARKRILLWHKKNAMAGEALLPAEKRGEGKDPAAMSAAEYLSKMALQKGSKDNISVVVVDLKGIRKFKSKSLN

COC(=O)/C=C(\C=C\C(O)(C(C)C)C1(C#N)CC1)C(F)(F)F (stereo not shown) [CCP4]
Activity with RCAR11-ABI2 receptor complex compared to ABA (RCAR11-ABI2): slightly lower activity than ABA | Leaf temperature increase, activity compared to ABA (Arabidopsis plants): moderately higher activity compared to ABA | Leaf temperature increase, activity compared to ABA (wheat plants): somewhat less active

COC(=O)/C=C(\C=C\C(O)(C1CC1)C1(C#N)CC1)C(F)(F)F (stereo not shown) [CCP5]
Induction of ABA signaling compared to ABA ([1]; aba2-1 protoplasts, 18 h ligand exposure): most active compound | Higher induction rates than ABA ([1]; at different ligand concentrations): up to 60% | Activity with RCAR11-ABI2 receptor complex compared to ABA (RCAR11-ABI2): slightly lower activity than ABA | Concentration for half-maximum inhibition of ABI2 relative to ABA (RCAR11-ABI2; approximately 60% conversion into free acid): twofold | Potency in reducing transpiration compared to ABA (Arabidopsis plants; 10 µM): more potent than 100 µM ABA | Leaf temperature increase, activity compared to ABA (Arabidopsis plants): more efficacious than ABA and even exceeding the efficacy of CCP1 to CCP3 | Duration of persistent response (Arabidopsis plants; 10 and 30 µM ligand treatment): 10 days | Potency relative to ABA (Arabidopsis plants; 10 and 30 µM ligand vs 100 µM ABA): more than tenfold; also recorded: more than ten times | Duration of effect relative to ABA (Arabidopsis plants; 10 and 30 µM ligand vs ABA): approximately three times | Efficiency in minimizing transpiration compared to ABA (Arabidopsis plants; foliar application): by an order of magnitude more efficient than ABA | Activity and persistence of minimized transpiration compared to ABA (Arabidopsis plants; single application 100 µM, recorded for 19 days): more active and persistent than ABA | Leaf temperature increase, activity compared to ABA (wheat plants): somewhat less active

COC(=O)/C=C(\C=C\C(O)(C1CCCC1)C1(C#N)CC1)C(F)(F)F (stereo not shown) [CCP6]
Activity with RCAR11-ABI2 receptor complex compared to ABA (RCAR11-ABI2): slightly lower activity than ABA | Leaf temperature increase, activity compared to ABA (Arabidopsis plants): somewhat lower efficacy

CCOC(=O)/C=C(\C#CC(O)(C(C)C)C1(C#N)CC1)CC (stereo not shown) [CCP8, ethyl-(2Z)-6-(1-cyanocyclopropyl)-3-ethyl-6-hydroxy-7-methyloct-2-en-4-ynoate]
chromatographic logP (LC-MS log p): 1.39

RCAR11/PYR1 (from UniProt O49686 1-191) (receptor)
induction of the ABRE-LUC reporter in yeast expressing RCAR11, ABI2, OST1 and ABF2, with 30 µM ABA or CCP1 against mock-treated cells (dose series with ABA, CCP1, CCP2 in Figure 2A) [2]: 8 fold
